Laboratory results taken from patent publication US20230203059A1, “MACROCYCLIC JAK INHIBITOR AND USES THEREOF” (Biopolar Hongye (Guangdong) Pharmaceutical Co. Ltd., priority 2020, published 2023).

Experiments:
Assay type in all cases: biochemical
JAK3 = target: T1, JAK3 (Homo sapiens, UniProt P52333); assay: JAK kinase activity, homogeneous time-resolved fluorescence (JAK3 reaction system); settings: ATP 2 μM, JAK3 protein 0.04 ng/μL; read-out: JAK 3 activity
T1 sequence (P52333 1-1124): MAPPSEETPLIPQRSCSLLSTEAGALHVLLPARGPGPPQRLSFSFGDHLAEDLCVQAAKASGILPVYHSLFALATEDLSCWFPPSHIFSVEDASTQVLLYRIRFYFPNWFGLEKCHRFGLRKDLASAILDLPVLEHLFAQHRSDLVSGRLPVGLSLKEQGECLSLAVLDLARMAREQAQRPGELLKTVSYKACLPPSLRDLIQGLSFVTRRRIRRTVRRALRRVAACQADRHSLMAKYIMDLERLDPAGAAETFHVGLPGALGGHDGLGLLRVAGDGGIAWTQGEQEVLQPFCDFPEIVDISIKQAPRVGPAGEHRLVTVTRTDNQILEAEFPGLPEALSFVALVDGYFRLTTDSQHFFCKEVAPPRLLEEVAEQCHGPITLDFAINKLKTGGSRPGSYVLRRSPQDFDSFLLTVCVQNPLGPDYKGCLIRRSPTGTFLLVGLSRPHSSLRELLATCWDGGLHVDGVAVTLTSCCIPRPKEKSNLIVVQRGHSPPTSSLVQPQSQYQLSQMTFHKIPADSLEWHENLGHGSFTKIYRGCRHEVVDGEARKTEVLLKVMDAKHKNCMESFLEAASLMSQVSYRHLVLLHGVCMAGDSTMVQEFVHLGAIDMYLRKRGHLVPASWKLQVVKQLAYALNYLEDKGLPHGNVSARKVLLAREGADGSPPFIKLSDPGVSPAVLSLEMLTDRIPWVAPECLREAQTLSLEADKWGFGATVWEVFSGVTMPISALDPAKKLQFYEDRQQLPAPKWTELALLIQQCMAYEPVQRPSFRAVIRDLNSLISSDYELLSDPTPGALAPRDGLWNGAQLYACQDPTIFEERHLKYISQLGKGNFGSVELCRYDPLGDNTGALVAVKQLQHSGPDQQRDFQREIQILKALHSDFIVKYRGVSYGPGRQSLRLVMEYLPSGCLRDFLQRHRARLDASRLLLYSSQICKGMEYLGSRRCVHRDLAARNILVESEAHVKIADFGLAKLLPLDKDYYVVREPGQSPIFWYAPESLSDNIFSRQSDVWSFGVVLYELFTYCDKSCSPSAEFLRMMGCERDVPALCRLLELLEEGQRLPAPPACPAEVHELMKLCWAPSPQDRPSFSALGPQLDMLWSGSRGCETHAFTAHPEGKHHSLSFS

TYK2 = TYK2 (Homo sapiens, UniProt P29597); assay: JAK kinase activity, homogeneous time-resolved fluorescence (TYK2 reaction system); settings: ATP 2 μM, TYK2 protein 0.2 ng/μL; read-out: TYK 2 activity
Procedure, shortened: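 Activity read as the 665 nm/615 nm ratio after adding EDTA-containing detection mix with anti-phospho-substrate antibody and XL-615. Beforehand, 0.2 ng/μL TYK2, 2 μM ATP, substrate and compound reacted 1 h in pH 7.0 Hepes buffer with MgCl2 and DTT. IC50 fitted with Hill-slope equation.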

JAK2 = JAK2 (Homo sapiens, UniProt O60674); assay: JAK kinase activity, homogeneous time-resolved fluorescence (JAK2 reaction system); settings: ATP 2 μM, JAK2 protein 0.01 ng/μL
Procedure, shortened: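 IC50 derived by Hill-equation fit of the 665/615 nm time-resolved fluorescence ratio after EDTA-containing detection mix with anti-phosphosubstrate antibody. Preceding 1 h reaction contained 2 μM ATP, 0.01 ng/μL JAK2, substrate, 50 mM Hepes pH 7.0, 5 mM MgCl2, 1 mM DTT.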

JAK1 = JAK1 (Homo sapiens, UniProt P23458); assay: JAK kinase activity, homogeneous time-resolved fluorescence (JAK1 reaction system); settings: ATP 2 μM, JAK1 protein 0.2 ng/μL; read-out: JAK 1 activity
Procedure, shortened: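 HTRF assay: JAK1 (0.2 ng/μL) with 2 μM ATP and substrate in 50 mM Hepes pH 7.0, 5 mM MgCl2, 1 mM DTT, 1 h. Phospho-substrate antibody/XL-615 detection with EDTA; 665/615 nm ratio, excitation 320 nm. IC50 from Hill-type fit against no-enzyme and no-compound controls.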

Sequence of JAK1 (P23458 whole entry): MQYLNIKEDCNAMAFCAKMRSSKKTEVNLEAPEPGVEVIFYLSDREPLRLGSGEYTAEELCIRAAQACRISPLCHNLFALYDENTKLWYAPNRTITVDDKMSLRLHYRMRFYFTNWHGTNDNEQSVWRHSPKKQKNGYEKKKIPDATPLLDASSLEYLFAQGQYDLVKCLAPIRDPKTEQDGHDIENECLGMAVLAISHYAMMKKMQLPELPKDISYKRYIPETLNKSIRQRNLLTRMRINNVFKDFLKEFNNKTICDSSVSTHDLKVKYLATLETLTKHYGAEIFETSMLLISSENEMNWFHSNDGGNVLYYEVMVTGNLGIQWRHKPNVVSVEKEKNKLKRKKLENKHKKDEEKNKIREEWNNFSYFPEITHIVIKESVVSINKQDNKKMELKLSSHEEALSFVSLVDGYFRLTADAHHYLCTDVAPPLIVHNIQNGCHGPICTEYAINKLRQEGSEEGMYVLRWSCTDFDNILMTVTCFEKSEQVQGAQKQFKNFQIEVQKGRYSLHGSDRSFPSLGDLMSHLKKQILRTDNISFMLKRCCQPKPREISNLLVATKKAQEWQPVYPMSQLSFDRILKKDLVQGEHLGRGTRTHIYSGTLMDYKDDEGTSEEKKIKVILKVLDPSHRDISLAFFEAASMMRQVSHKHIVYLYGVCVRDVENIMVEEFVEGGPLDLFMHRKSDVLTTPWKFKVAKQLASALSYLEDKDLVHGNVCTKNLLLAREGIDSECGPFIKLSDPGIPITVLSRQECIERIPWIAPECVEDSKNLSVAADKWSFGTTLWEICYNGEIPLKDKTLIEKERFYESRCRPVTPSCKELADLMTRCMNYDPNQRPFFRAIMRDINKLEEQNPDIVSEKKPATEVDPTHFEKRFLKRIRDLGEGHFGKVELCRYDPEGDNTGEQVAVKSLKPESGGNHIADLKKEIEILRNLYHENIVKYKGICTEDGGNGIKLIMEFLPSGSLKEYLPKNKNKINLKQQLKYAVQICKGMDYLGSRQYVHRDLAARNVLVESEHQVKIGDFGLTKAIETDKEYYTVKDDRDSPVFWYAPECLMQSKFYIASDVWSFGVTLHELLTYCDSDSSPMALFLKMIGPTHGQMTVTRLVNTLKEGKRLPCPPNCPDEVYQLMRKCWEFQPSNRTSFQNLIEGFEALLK
Sequence of TYK2 (P29597 whole entry): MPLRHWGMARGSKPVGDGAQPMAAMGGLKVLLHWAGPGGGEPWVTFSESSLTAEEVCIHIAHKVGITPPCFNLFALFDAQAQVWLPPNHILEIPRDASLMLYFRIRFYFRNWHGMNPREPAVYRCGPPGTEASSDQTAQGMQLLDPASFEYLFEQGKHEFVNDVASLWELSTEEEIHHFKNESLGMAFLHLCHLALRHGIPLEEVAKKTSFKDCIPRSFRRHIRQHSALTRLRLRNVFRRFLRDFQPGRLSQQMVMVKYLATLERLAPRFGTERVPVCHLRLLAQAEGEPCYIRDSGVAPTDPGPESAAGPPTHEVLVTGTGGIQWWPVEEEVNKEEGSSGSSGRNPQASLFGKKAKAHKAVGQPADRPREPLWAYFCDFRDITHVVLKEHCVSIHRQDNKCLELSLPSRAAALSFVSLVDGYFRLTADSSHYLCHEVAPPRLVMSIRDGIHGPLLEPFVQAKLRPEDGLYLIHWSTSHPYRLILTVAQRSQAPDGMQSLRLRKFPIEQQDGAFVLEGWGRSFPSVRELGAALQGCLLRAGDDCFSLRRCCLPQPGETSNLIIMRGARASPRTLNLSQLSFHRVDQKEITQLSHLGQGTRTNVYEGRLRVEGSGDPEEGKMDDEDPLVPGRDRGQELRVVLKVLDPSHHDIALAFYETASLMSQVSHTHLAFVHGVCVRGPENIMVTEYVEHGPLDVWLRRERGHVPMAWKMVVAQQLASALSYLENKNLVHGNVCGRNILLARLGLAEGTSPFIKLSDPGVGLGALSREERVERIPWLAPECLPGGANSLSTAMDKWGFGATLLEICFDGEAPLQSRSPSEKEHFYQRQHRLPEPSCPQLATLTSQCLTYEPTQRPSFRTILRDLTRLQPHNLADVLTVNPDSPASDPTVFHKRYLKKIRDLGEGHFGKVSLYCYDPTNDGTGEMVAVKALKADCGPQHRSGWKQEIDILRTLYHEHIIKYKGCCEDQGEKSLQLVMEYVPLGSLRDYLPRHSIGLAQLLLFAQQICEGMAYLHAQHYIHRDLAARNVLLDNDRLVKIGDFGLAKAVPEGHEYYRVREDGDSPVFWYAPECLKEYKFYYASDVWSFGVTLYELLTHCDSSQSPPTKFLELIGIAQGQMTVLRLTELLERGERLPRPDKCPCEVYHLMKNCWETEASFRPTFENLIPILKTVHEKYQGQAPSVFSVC
Sequence of JAK2 (O60674 whole entry): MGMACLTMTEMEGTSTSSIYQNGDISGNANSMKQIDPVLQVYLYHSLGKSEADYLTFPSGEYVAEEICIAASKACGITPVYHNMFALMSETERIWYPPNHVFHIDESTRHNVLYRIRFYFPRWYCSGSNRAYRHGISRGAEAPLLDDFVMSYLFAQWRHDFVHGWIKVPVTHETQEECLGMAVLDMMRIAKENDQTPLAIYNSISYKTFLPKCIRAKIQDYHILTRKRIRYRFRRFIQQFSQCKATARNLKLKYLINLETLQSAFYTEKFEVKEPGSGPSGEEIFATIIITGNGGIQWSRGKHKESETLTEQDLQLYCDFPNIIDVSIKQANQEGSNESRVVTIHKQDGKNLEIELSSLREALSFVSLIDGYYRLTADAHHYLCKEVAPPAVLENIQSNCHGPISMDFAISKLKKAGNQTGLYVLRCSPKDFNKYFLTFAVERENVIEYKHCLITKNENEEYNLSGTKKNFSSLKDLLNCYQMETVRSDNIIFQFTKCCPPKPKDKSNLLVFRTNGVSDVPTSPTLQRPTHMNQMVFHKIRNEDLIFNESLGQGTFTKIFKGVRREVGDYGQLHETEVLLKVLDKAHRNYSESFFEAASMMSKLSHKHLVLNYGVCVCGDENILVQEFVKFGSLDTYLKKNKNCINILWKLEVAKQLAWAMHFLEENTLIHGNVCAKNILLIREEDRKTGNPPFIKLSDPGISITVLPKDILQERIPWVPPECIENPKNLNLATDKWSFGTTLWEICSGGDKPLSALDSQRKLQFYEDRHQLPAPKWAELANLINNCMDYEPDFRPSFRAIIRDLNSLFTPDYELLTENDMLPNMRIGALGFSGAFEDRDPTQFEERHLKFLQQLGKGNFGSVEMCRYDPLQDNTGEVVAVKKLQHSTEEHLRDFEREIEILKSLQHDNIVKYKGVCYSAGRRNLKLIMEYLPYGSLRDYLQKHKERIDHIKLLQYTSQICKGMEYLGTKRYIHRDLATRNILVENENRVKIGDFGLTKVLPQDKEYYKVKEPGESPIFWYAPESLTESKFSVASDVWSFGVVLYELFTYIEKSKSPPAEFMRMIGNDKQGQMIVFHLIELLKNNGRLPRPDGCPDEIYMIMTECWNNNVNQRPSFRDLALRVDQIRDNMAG

For `O=C1NCCCCOCc2cc(ccc2OCC2CCCOC2)Nc2nccc(n2)-c2ccc1cc2[N+](=O)[O-]` (centres unmarked) [Example 146, 1^2-nitro-4^4-((tetrahydro-2H-pyran-3-yl)methoxy)-6-oxa-3,11-diaza-2(4,2)-pyrimidina-1(1,4),4(1,3)-dibenzenacyclododecaphan-12-one], the IC50 (JAK3) was 101 to 1000 nM, the IC50 (TYK2) was over 10000 nM and the IC50 (JAK2) was 1000 to 10000 nM. For the same compound, the IC50 (JAK1) was over 10000 nM.

`Nc1cc2ccc1-c1ccnc(n1)Nc1ccc(OCC3CCCOC3)c(c1)COCCCCNC2=O` (centres unmarked) [Example 147] was tested, and the IC50 (JAK3) was under 10 nM, the IC50 (TYK2) was 1000 to 10000 nM and the IC50 (JAK2) was 101 to 1000 nM. It also gave an IC50 (JAK1) of 101 to 1000 nM.

`COc1cnc2nc1-c1ccc(c(F)c1)C(=O)NCCCCOCc1cc(ccc1N1CCOCC1)N2` [Example 58, 1^3-fluoro-2^5-methoxy-4^4-morpholin-6-oxa-3,11-diaza-2(4,2)-pyrimidina-1(1,4),4(1,3)-dibenzenacyclodode-caphan-12-one] showed an IC50 (JAK3) of 11 to 100 nM, an IC50 (TYK2) of 101 to 1000 nM and an IC50 (JAK2) of 11 to 100 nM. For the same compound, the IC50 (JAK1) was 11 to 100 nM.

`O=C1NCCCCOCc2cc(ccc2OCC2Cc3ccccc3C2)Nc2nccc(n2)-c2ccc1cc2[N+](=O)[O-]` [Example 122, 4^4-((2,3-dihydro-1H-inden-2-yl)methoxy)-1^2-nitro-6-oxa-3,11-diaza-2(4,2)-pyrimidina-1(1,4),4(1,3)-dibenzenacyclododecaphan-12-one] showed an IC50 (JAK3) of 101 to 1000 nM, an IC50 (TYK2) of over 10000 nM and an IC50 (JAK2) of over 10000 nM. For the same compound, the IC50 (JAK1) was over 10000 nM.

`Nc1cc2ccc1-c1ccnc(n1)Nc1ccc(OCC3COC3)c(c1)COc1ccc(cc1)NC2=O` [Example 214, 1-amino-4^4-(oxetan-3-ylmethoxy)-6-oxa-3,8-diaza-2(4,2)-pyrimidina-1,7(1,4)4(1,3)-tribenzenacyclonona-phane-9-one] was tested, and the IC50 (JAK3) was 11 to 100 nM, the IC50 (TYK2) was 1000 to 10000 nM and the IC50 (JAK2) was 101 to 1000 nM. For the same compound, the IC50 (JAK1) was 1000 to 10000 nM.

`C[C@@H]1CCOCc2cc(ccc2OC2CC2)Nc2nccc(n2)-c2ccc(cc2N)C(=O)NC1` [Example 181, (R)-1^2-amino-4^4-cyclopropxy-9-methyl-6-ox-3,11-diaza-2 (4,2)-pyrimidina-1(1,4),4(1,3)-di-benzenacyclododecaphan-12-one] gave an IC50 (JAK3) of under 10 nM, an IC50 (TYK2) of 101 to 1000 nM and an IC50 (JAK2) of 11 to 100 nM. It also gave an IC50 (JAK1) of 101 to 1000 nM.

In the case of `Cc1cc2ccc1-c1ccnc(n1)Nc1cccc(c1)COCCCCNC2=O` [Example 40, 1^2-methyl-6-oxa-3,11-diaza-2(4,2)-pyrimidina-1(1,4),4(1,3)-diben-zenacyclododecaphan-12-one], the IC50 (JAK3) is reported as 101 to 1000 nM, the IC50 (TYK2) is reported as over 10000 nM and the IC50 (JAK2) is reported as 1000 to 10000 nM. For the same compound, the IC50 (JAK1) was 1000 to 10000 nM.

In the case of `COc1ccc2cc1COCCCCNC(=O)c1ccc(c(F)c1)-c1ccnc(n1)N2` [Example 15, 1^2-fluoro-4^4-methoxy-6-oxa-3,11-di-aza-2(4,2)-pyrimidina-1(1,4),4(1,3)-dibenzenacyclododecaphan-12-one], the IC50 (JAK3) is reported as 11 to 100 nM, the IC50 (TYK2) is reported as 1000 to 10000 nM and the IC50 (JAK2) is reported as 101 to 1000 nM. For the same compound, the IC50 (JAK1) was 101 to 1000 nM.

`C[C@@H]1CCOCc2cc(ccc2OC2CCCC2)Nc2nccc(n2)-c2ccc(cc2N)C(=O)NC1` [Example 185, (R)-1-amino-4^4-(cyclopentoxy)-9-methyl-6-oxa-3,11-diaza-2(4,2)-py-rimidina-1(1,4),4(1,3)-dibenzena-cyclododecaphan-12-one] gave an IC50 (JAK3) of 11 to 100 nM, an IC50 (TYK2) of 1000 to 10000 nM and an IC50 (JAK2) of 101 to 1000 nM. The IC50 (JAK1) was 1000 to 10000 nM.

For `Cc1cc2ccc1-c1nc(ncc1C)Nc1ccc(F)c(c1)COCCCCNC2=O` [Example 45, 1^2,2^5-dimethyl-4^4-fluoro-6-oxa-3,11-diaza-2(4,2)-pyrimidina-1(1,4),4(1,3)-dibenzenacyclododecaphan-12-one], the IC50 (JAK3) was 1000 to 10000 nM, the IC50 (TYK2) was over 10000 nM and the IC50 (JAK2) was 1000 to 10000 nM. For the same compound, the IC50 (JAK1) was 1000 to 10000 nM.

Work on `Nc1cc2ccc1-c1ccnc(n1)Nc1ccc(Oc3cccc(F)c3)c(c1)COCCCCNC2=O` [Example 102, 1^2-amino-4^4-(3-fluorophenoxy)-6-oxa-3,11-diaza-2(4,2)-pyrimidina-1(1,4),4(1,3)-dibenzenacyclodode-caphan-12-one] yielded an IC50 (JAK3) of 11 to 100 nM, an IC50 (TYK2) of over 10000 nM and an IC50 (JAK2) of 1000 to 10000 nM. The IC50 (JAK1) was 1000 to 10000 nM.

For `O=C1NCCCCOCc2cc(ccc2N2CCOCC2)Nc2ncc(Cl)c(n2)-c2ccc1cc2Cl` [Example 17, 1^2,2^5-dichloro-4^4-morpholin-6-oxa-3,11-diaza-2(4,2)-pyrimidina-1(1,4),4(1,3)-dibenzenacyclododecaphan-12-one], the IC50 (JAK3) was 101 to 1000 nM, the IC50 (TYK2) was 1000 to 10000 nM and the IC50 (JAK2) was 101 to 1000 nM. The IC50 (JAK1) was 1000 to 10000 nM.

With `Cc1ccc2cc1COCCCCNC(=O)c1ccc(c(C)c1)-c1ccnc(n1)N2` [Example 39, 1^2,4^4-dimethyl-6-oxa-3,11-diaza-2(4,2)-pyrimidina-1(1,4),4(1,3)-diben-zenacyclododecaphan-12-one] the IC50 (JAK3) was 101 to 1000 nM, the IC50 (TYK2) was over 10000 nM and the IC50 (JAK2) was 1000 to 10000 nM. The IC50 (JAK1) was 1000 to 10000 nM.

Work on `O=C1NCCCCOCc2cc(ccc2OCC2CCCC2)Nc2nccc(n2)-c2ccc1cc2[N+](=O)[O-]` [Example 104, 4^4-(cyclopentylmethoxy)-1^2-nitro-6-oxa-3,11-diaza-2(4,2)-pyrimidina-1(1,4),4(1,3)-dibenzenacyclodo-decaphan-12-one] yielded an IC50 (JAK3) of 101 to 1000 nM, an IC50 (TYK2) of over 10000 nM and an IC50 (JAK2) of 1000 to 10000 nM. The IC50 (JAK1) was over 10000 nM.

Work on `O=C1NCCCCOCc2cc(ccc2OCC2CCC2)Nc2nccc(n2)-c2ccc1cc2[N+](=O)[O-]` [Example 99, 4^4-(cyclobutylmethoxy)-1^2-nitro-6-oxa-3,11-diaza-2(4,2)-pyrimidina-1(1,4),4(1,3)-dibenzenacyclodode-caphan-12-one] yielded an IC50 (JAK3) of 101 to 1000 nM, an IC50 (TYK2) of over 10000 nM and an IC50 (JAK2) of 1000 to 10000 nM. The IC50 (JAK1) was over 10000 nM.

Compound `O=C1NCCCCOCc2cc(ccc2N2CCOCC2)Nc2ncc(Cl)c(n2)-c2ccc1cc2` [Example 9, 2^5-chloro-4^4-morpholin-6-oxa-3,11-diaza-2(4,2)-pyrimidina-1(1,4),4(1,3)-dibenzenacyclododecaphan-12-one] has an IC50 (JAK3) of under 10 nM, an IC50 (TYK2) of 11 to 100 nM and an IC50 (JAK2) of under 10 nM. For the same compound, the IC50 (JAK1) was 11 to 100 nM.

With `CC(C)Oc1ccc2cc1COCC[C@H](C)CNC(=O)c1ccc(c(N)c1)-c1ccnc(n1)N2` [Example 189, (S)-1^2-amino-4^4-isopropoxy-9-meth-yl-6-oxa-3,11-diaza-2(4,2)-pyrimi-dina-1(1,4),4(1,3)-dibenzenacyclo-dodecaphan-12-one] the IC50 (JAK3) was 11 to 100 nM, the IC50 (TYK2) was over 10000 nM and the IC50 (JAK2) was 101 to 1000 nM. It also gave an IC50 (JAK1) of 101 to 1000 nM.

`COc1cccc(F)c1COc1ccc2cc1COCCCCNC(=O)c1ccc(c(N)c1)-c1ccnc(n1)N2` [Example 172, 1^2-amino-4^4-((2-fluoro-6-methoxy-benzyl)oxy)-6-oxa-3,11-diaza-2(4,2)-pyrimidina-1(1,4),4(1,3)-di-benzenacyclododecaphan-12-one] gave an IC50 (JAK3) of 11 to 100 nM, an IC50 (TYK2) of 1000 to 10000 nM and an IC50 (JAK2) of 101 to 1000 nM. It also gave an IC50 (JAK1) of 1000 to 10000 nM.

In the case of `O=C1NCCCCOCc2cc(ccc2OCc2ccccc2F)Nc2nccc(n2)-c2ccc1cc2[N+](=O)[O-]` [Example 152, 4^4-((2-fluorobenzyl)oxy)-1^2-nitro-6-oxa-3,11-diaza-2(4,2)-pyrimidina-1(1,4),4(1,3)-dibenzenacyclodo-decaphan-12-one], the IC50 (JAK3) is reported as 101 to 1000 nM, the IC50 (TYK2) is reported as over 10000 nM and the IC50 (JAK2) is reported as 1000 to 10000 nM. For the same compound, the IC50 (JAK1) was 1000 to 10000 nM.

With `Nc1cc2ccc1-c1ccnc(n1)Nc1ccc(N3CCOCC3)c(c1)COCCCCCCNC2=O` [Example 57, 1^2-amino-4^4-morpholin-6-oxa-3,13-diaza-2(4,2)-pyrimidina-1(1,4),4(1,3)-dibenzenacyclotetradecaphan-14-one] the IC50 (JAK3) was 11 to 100 nM, the IC50 (TYK2) was 101 to 1000 nM and the IC50 (JAK2) was 101 to 1000 nM. The IC50 (JAK1) was 1000 to 10000 nM.
